We go through 1 compound from US10760110B2, “Antibiotic testing and screening system” (priority 2017, dated 2020).

The test system of the assay is A. baumannii KW1 strains with β-lactamase plasmids. Briefly: Etest MIC of β-lactams, extended-spectrum β-lactamase, AmpC β-lactamase or carbapenemase (Table 18). The class given is cell-based, Acinetobacter baumannii. The procedure:
DNA fragments of the resistance genes along with their flanking regions were amplified from clinical plasmids via PCR with specific primer pairs. The resulting PCR fragments were digested and then cloned into the plasmid pYMAb5 or pYMAb5Tc. The resulting plasmids were then transformed into A. baumannii KW1 via electroporation.
The MICs of antibiotics were determined using the Etest (Biodisk AB, Sweden) according to the manufacturer's instructions. The MICs from the Etest, which fall between standard two-fold dilutions, were rounded up to the next highest two-fold value. The MICs of ceftazidime and cefotaxime against K. pneumoniae NVT1001 harbouring the pACYC177 plasmid with blaOXA-48 were further determined using a broth microdilution test according to the recommendations of the CLSI,^25 and the results were interpreted according to the breakpoints established by the CLSI in 2017.^25 Meanwhile, due to the lack of CLSI breakpoints in 2016 and 2017, the results for cephalothin were interpreted according to the breakpoints established by the CLSI in 2015,^26 and the results for moxifloxacin were interpreted according to the breakpoints established by the EUCAST in 2017.^27

`CCN1CCN(C(=O)N[C@@H](C(=O)N[C@@H]2C(=O)N3[C@@H]2SC(C)(C)[C@@H]3C(=O)O)c2ccccc2)C(=O)C1=O` [PP]: the MIC (in general, the lowest concentration found to suppress growth) (KW1, no supplemental plasmid) turned out to be 12 µg/mL; the MIC (KW1 with ADC-30 on pYMAb5) is >256 µg/mL; the MIC (KW1 with CTX-M-15 on pYMAb5) was >256 µg/mL; the MIC (KW1 with IMP-1 on pYMAb5) was 16 µg/mL; the minimum inhibitory concentration (MIC) (KW1 with NDM-1 on pYMAb5) was >256 µg/mL; the MIC (KW1 with OXA-23 on pYMAb5) is >256 µg/mL. Also, the minimum inhibitory concentration (MIC) reads like this: (KW1 with OXA-58 on pYMAb5) 128 µg/mL; (KW1 with OXA-66 on pYMAb5) 64 µg/mL; (KW1 with OXA-72 on pYMAb5) >256 µg/mL; (KW1 with VEB-3 on pYMAb5) 12 µg/mL; (KW1 with VIM-1 on pYMAb5) >256 µg/mL; (KW1 with shuttle vector pYMAb5) 12 µg/mL.
